Assay results published in the NIST ThermoML archive (doi:10.1021/je0502142).

Tests used:
[1] = Liquid; for mass density / speed of sound: 298.15 K; for mass density: 101.33 kPa, Vibrating tube method; for speed of sound: Sing-around technique in a fixed-path interferometer
[2] = refractive index (Na D-line) (dimensionless); conditions: 298.15 K; 101.33 kPa; Liquid; Standard Abbe refractometry
[3] = xn = mol fraction of the nth substance listed; conditions: 298.15 K, 101.3 kPa, Liquid; for speed of sound: Sing-around technique in a fixed-path interferometer
[4] = refractive index (Na D-line) (dimensionless); xn = mol fraction of the nth substance listed; conditions: 298.15 K, 101.3 kPa, Liquid, Standard Abbe refractometry

CCC(C)CO (stereo unspecified) [2-methyl-1-butanol]
Conditions | mass density [kg/m3] | refractive index | speed of sound [m/s]
[1] | 814.87 | – | 1253.3
[2] | – | 1.40872 | –

Conditions | vapor or sublimation pressure [kPa]
[1], 401.93 K | 101.3

CCC(C)CO (stereo unspecified) [2-methyl-1-butanol] + CCCO
Conditions | mass density, [3] [kg/m3] | refractive index, [4] | speed of sound, [3] [m/s]
x2 = 0.051 | 814.37 | 1.40768 | 1252.4
x2 = 0.1 | 813.84 | 1.40677 | 1250.6
x2 = 0.151 | 813.28 | 1.40573 | 1248.7
x2 = 0.2 | 812.71 | 1.40478 | 1246.8
x2 = 0.251 | 812.09 | 1.4038 | 1244.7
x2 = 0.3 | 811.46 | 1.40272 | 1242.8
x2 = 0.351 | 810.8 | 1.40164 | 1240.5
x2 = 0.408 | 810.04 | 1.40039 | 1238
x2 = 0.45 | 809.44 | 1.39934 | 1236.1
x2 = 0.501 | 808.69 | 1.39815 | 1233.7
x2 = 0.55 | 807.94 | 1.39697 | 1231.3
x2 = 0.6 | 807.14 | 1.39556 | 1228.8
x2 = 0.65 | 806.3 | 1.39422 | 1226.2
x2 = 0.7 | 805.38 | 1.39279 | 1223.2
x2 = 0.75 | 804.5 | 1.39133 | 1220.7
x2 = 0.801 | 803.53 | 1.38982 | 1217.6
x2 = 0.85 | 802.6 | 1.38815 | 1214.8
x2 = 0.899 | 801.61 | 1.38658 | 1211.8
x2 = 0.949 | 800.64 | 1.38483 | 1208.7

CC(C)CCO [3-methylbutan-1-ol]
Conditions | mass density [kg/m3] | refractive index | speed of sound [m/s]
[1] | 806.78 | – | 1238.8
[2] | – | 1.40515 | –

Conditions | vapor or sublimation pressure [kPa]
[1], 404.27 K | 101.3

CC(C)CCO [3-methylbutan-1-ol] + CCCO
Conditions | mass density, [3] [kg/m3] | refractive index, [4] | speed of sound, [3] [m/s]
x2 = 0.05 | 806.4 | 1.40447 | 1234.4
x2 = 0.1 | 806.12 | 1.40366 | 1233.5
x2 = 0.15 | 805.83 | 1.40281 | 1232.3
x2 = 0.201 | 805.54 | 1.402 | 1231.1
x2 = 0.251 | 805.25 | 1.40115 | 1230
x2 = 0.3 | 804.97 | 1.4002 | 1228.8
x2 = 0.351 | 804.66 | 1.39919 | 1227.5
x2 = 0.4 | 804.37 | 1.3983 | 1226.2
x2 = 0.45 | 804.07 | 1.39734 | 1224.9
x2 = 0.5 | 803.75 | 1.39621 | 1223.4
x2 = 0.551 | 803.41 | 1.39507 | 1222
x2 = 0.6 | 803.08 | 1.39396 | 1220
x2 = 0.65 | 802.72 | 1.39278 | 1218.5
x2 = 0.7 | 802.34 | 1.39148 | 1217
x2 = 0.749 | 801.96 | 1.39035 | 1215.3
x2 = 0.799 | 801.55 | 1.38898 | 1213.6
x2 = 0.85 | 801.13 | 1.38757 | 1211.8
x2 = 0.9 | 800.69 | 1.3861 | 1210
x2 = 0.95 | 800.22 | 1.38458 | 1208.2

CCCO [propan-1-ol]
Conditions | mass density [kg/m3] | refractive index | speed of sound [m/s]
[1] | 799.75 | – | 1205.7
[2] | – | 1.38304 | –

Conditions | vapor or sublimation pressure [kPa]
[1], 370.29 K | 101.3
